# Results reported in article PMC11359702, “Synthesis and Biochemical Evaluation of Ethanoanthracenes and Related Compounds: Antiproliferative and Pro-Apoptotic Effects in Chronic Lymphocytic Leukemia (CLL)” (Pharmaceuticals, 2024).
# Where two headings read alike, the source gives them in different places.
# What was measured:
# [1] = system: breast cancer cell lines; test: NCI-60 five-dose assay, breast cancer cell lines; type: cell-based, human; settings: range over breast cancer cell lines
# Method: (§1) A number of our most promising compounds identified through preliminary cell viability testing (23c, 23d, 23f, 23h, 23l, 23m, 23n, 23o, 24f, 24l, 25n and 26n) were selected for NCI drug screening in the 60-cell-line panel. The panel includes nine subcategories based on cancer tissue types, which include leukemia, ovarian, central nervous system, breast, lung, prostate, skin, renal and colon cancer. The compounds were initially assessed in a one-dose assay at a fixed treatment concentration of 10 µM. The compounds selected for further investigation were progressed to a five-dose assay across the concentration ranges of 0.01, 0.1, 1, 10 and 100 µM [72]. The endpoints assessed in the screening protocol were GI50, TGI and LC50 [72].
# [2] = system: leukemia cell panel; test: NCI-60 five-dose assay, leukemia cell panel mean; type: cell-based, human; settings: mean across the six leukemia cell lines
# [3] = system: RPMI-8226; test: NCI-60 five-dose assay; type: cell-based, human
# [4] = system: HG-3 cells; test: alamarBlue cell viability assay; settings: HG-3, 24 h, read-out: HG-3 IC50
# [5] = system: HG-3 and PGA-1 cell lines; test: alamarBlue cell viability assay, mean of both CLL cell lines; type: cell-based, human; settings: mean of HG-3 and PGA-1
# [6] = system: MOLT-4; test: NCI-60 five-dose assay; type: cell-based, human
# [7] = system: melanoma cell lines; test: NCI-60 five-dose assay, melanoma cell lines; type: cell-based, human; settings: range over melanoma cell lines
# Method: as §1
# [8] = system: NCI-H460; test: NCI-60 five-dose assay; type: cell-based, human
# Method: as §1
# [9] = system: NCI-H552; test: NCI-60 five-dose assay; type: cell-based, human
# Method: as §1
# [10] = system: UO-31; test: NCI-60 five-dose assay; type: cell-based, human
# Method: as §1
# [11] = system: HCT-15; test: NCI-60 five-dose assay; type: cell-based, human
# Method: as §1
# [12] = system: SNB-19; test: NCI-60 five-dose assay; type: cell-based, human
# Method: as §1
# [13] = system: BT-549; test: NCI-60 five-dose assay; type: cell-based, human
# Method: as §1
# [14] = system: UACC-62; test: NCI-60 five-dose assay; type: cell-based, human
# Method: as §1
# [15] = system: SF539; test: NCI-60 five-dose assay; type: cell-based, human
# Method: as §1
# [16] = system: PC-3; test: NCI-60 five-dose assay; type: cell-based, human
# Method: as §1
# [17] = system: SF-268; test: NCI-60 five-dose assay; type: cell-based, human
# Method: as §1
# [18] = system: UACC-257; test: NCI-60 five-dose assay; type: cell-based, human
# Method: as §1
# [19] = system: RXF 393; test: NCI-60 five-dose assay; type: cell-based, human
# Method: as §1
# [20] = system: ACHN; test: NCI-60 five-dose assay; type: cell-based, human
# Method: as §1
# [21] = system: CAKI-1; test: NCI-60 five-dose assay; type: cell-based, human
# Method: as §1
# [22] = system: SW-620; test: NCI-60 five-dose assay; type: cell-based, human
# Method: as §1
# [23] = system: TK-10; test: NCI-60 five-dose assay; type: cell-based, human
# Method: as §1
# [24] = system: LOX IMV1; test: NCI-60 five-dose assay; type: cell-based, human
# Method: as §1
# [25] = system: SK-MEL-28; test: NCI-60 five-dose assay; type: cell-based, human
# Method: as §1
# [26] = system: MCF-7; test: NCI-60 five-dose assay; type: cell-based, human
# Method: as §1
# [27] = system: OVCAR-5; test: NCI-60 five-dose assay; type: cell-based, human
# Method: as §1
# [28] = system: HOP-92; test: NCI-60 five-dose assay; type: cell-based, human
# Method: as §1
# [29] = system: MALME-3M; test: NCI-60 five-dose assay; type: cell-based, human
# Method: as §1
# [30] = system: EKVX; test: NCI-60 five-dose assay; type: cell-based, human
# Method: as §1
# [31] = system: HS 578T; test: NCI-60 five-dose assay; type: cell-based, human
# Method: as §1
# [32] = system: NCI-H23; test: NCI-60 five-dose assay; type: cell-based, human
# Method: as §1
# [33] = system: IGROV1; test: NCI-60 five-dose assay; type: cell-based, human
# Method: as §1
# [34] = system: HOP-62; test: NCI-60 five-dose assay; type: cell-based, human
# Method: as §1
# [35] = system: MDA-MB-468; test: NCI-60 five-dose assay; type: cell-based, human
# Method: as §1
# [36] = system: MDA-MB-231/ATCC; test: NCI-60 five-dose assay; type: cell-based, human
# Method: as §1
# [37] = system: SK-OV-3; test: NCI-60 five-dose assay; type: cell-based, human
# Method: as §1
# [38] = system: A549/ATCC; test: NCI-60 five-dose assay; type: cell-based, human
# Method: as §1
# [39] = system: HCT-2998; test: NCI-60 five-dose assay; type: cell-based, human
# Method: as §1
# [40] = system: NCI-H226; test: NCI-60 five-dose assay; type: cell-based, human
# Method: as §1
# [41] = system: NCI/ADR-RES; test: NCI-60 five-dose assay; type: cell-based, human
# Method: as §1
# [42] = system: M14; test: NCI-60 five-dose assay; type: cell-based, human
# Method: as §1
# [43] = system: OVCAR-4; test: NCI-60 five-dose assay; type: cell-based, human
# Method: as §1
# [44] = system: KM12; test: NCI-60 five-dose assay; type: cell-based, human
# Method: as §1
# [45] = system: HT29; test: NCI-60 five-dose assay; type: cell-based, human; settings: HT29
# Method: as §1
# [46] = system: HCT-116; test: NCI-60 five-dose assay; type: cell-based, human
# Method: as §1
# [47] = system: PGA-1 cells; test: alamarBlue cell viability assay; settings: for IC50: read-out: PGA-1 IC50
compound,measurement,setting,value
O=C(/C=C/C12c3ccccc3C(c3ccccc31)C1C(=O)NC(=O)C12)c1ccc(F)cc1 (racemic) [Compound 23h],GI50,[1]; Homo sapiens,885 to 1880 nM
same,GI50,[2]; Homo sapiens,1000 nM
same,GI50,"[3]; Homo sapiens, RPMI-8226, RPMI-8226",1620 nM
same,GI50,[3]; RPMI-8226,1160 nM
same,IC50,[4]; Homo sapiens,4650 nM
same,IC50,"[5]; Homo sapiens, CLL cell",3770 nM
same,GI50,"[6]; Homo sapiens, MOLT-4, MOLT-4",460 nM
same,GI50,[6]; MOLT-4,759 nM
same,GI50,[7]; Homo sapiens,1600 to 2480 nM
same,GI50,[8]; Homo sapiens,1640 nM
same,GI50,[9]; Homo sapiens,1740 nM
same,GI50,[10]; Homo sapiens,1120 nM
same,GI50,[11]; Homo sapiens,1190 nM
same,GI50,[12]; Homo sapiens,2680 nM
same,GI50,[13]; Homo sapiens,1370 nM
same,GI50,[14]; Homo sapiens,1660 nM
same,GI50,"[15]; Homo sapiens, SF-539",1690 nM
same,GI50,[16]; Homo sapiens,1420 nM
same,GI50,[17]; Homo sapiens,4560 nM
same,GI50,[18]; Homo sapiens,2130 nM
same,GI50,[19]; Homo sapiens,1270 nM
same,GI50,[20]; Homo sapiens,1390 nM
same,GI50,[21]; Homo sapiens,1020 nM
same,GI50,[22]; Homo sapiens,2270 nM
same,GI50,[23]; Homo sapiens,3180 nM
same,GI50,[24]; Homo sapiens,1650 nM
same,GI50,[25]; Homo sapiens,1980 nM
same,GI50,"[26]; Homo sapiens, MCF7",885 nM
same,GI50,[27]; Homo sapiens,1600 nM
same,GI50,[28]; Homo sapiens,1330 nM
same,GI50,"[29]; Homo sapiens, Malme-3M",1600 nM
same,GI50,[30]; Homo sapiens,1850 nM
same,GI50,[31]; Homo sapiens,1820 nM
same,GI50,[32]; Homo sapiens,2610 nM
same,GI50,"[33]; Homo sapiens, IGROV-1",2100 nM
same,GI50,[34]; Homo sapiens,2450 nM
same,GI50,[35]; Homo sapiens,1880 nM
same,GI50,[36]; Homo sapiens,1640 nM
same,GI50,[37]; Homo sapiens,5280 nM
same,GI50,[38]; Homo sapiens,2370 nM
same,GI50,[39]; Homo sapiens,1700 nM
same,GI50,[40]; Homo sapiens,2040 nM
same,GI50,[41]; Homo sapiens,2160 nM
same,GI50,[42]; Homo sapiens,2140 nM
same,GI50,[43]; Homo sapiens,1960 nM
same,GI50,[44]; Homo sapiens,2180 nM
same,GI50,"[45]; Homo sapiens, HT-29",1860 nM
same,GI50,[46]; Homo sapiens,537 nM
same,IC50,"[47]; Homo sapiens, 24 h",2880 nM
same,viability at 10 µM,"[47]; Homo sapiens, 24 h, read-out: cell viability",9%
"O=C(/C=C/C12c3ccccc3C(c3ccccc31)C1C(=O)NC(=O)C12)c1ccc(Cl)cc1 (racemic) [Compound 23l, (E)-9-(3-(4-Chlorophenyl)-3-oxoprop-1-en-1-yl)-9,10-dihydro-9,10-[3,4]epipyrroloanthracene-12,14-dione]",GI50,[1],1340 to 1940 nM
same,GI50,[2],1770 nM
same,GI50,[3]; RPMI-8226,1660 nM
same,IC50,[4],2230 nM
same,IC50,[5],2720 nM
same,GI50,[6]; MOLT-4,1700 nM
same,GI50,[7],1400 to 1810 nM
same,GI50,[8],1800 nM
same,GI50,[9],1460 nM
same,GI50,[10],1280 nM
same,GI50,[11],1470 nM
same,GI50,[12],1580 nM
same,GI50,[13],1340 nM
same,GI50,[14],1400 nM
same,GI50,[15],1510 nM
same,GI50,[16],1390 nM
same,GI50,[17],1990 nM
same,GI50,[18],1560 nM
same,GI50,[19],1200 nM
same,GI50,[20],1650 nM
same,GI50,[21],1240 nM
same,GI50,[22],1890 nM
same,GI50,[23],1920 nM
same,GI50,[24],1600 nM
same,GI50,[25],1800 nM
same,GI50,[26],1340 nM
same,GI50,[27],1580 nM
same,GI50,[28],1320 nM
same,GI50,[29]; MALME-3M,1510 nM
same,GI50,[30],1430 nM
same,GI50,[31],1940 nM
same,GI50,[32],1780 nM
same,GI50,[33],1670 nM
same,GI50,[34],1690 nM
same,GI50,[35],1700 nM
same,GI50,[36],1880 nM
same,GI50,[37],1850 nM
same,GI50,[38],2400 nM
same,GI50,[39],1690 nM
same,GI50,[40],1920 nM
same,GI50,[41],1770 nM
same,GI50,[42],1650 nM
same,GI50,[43],1420 nM
same,GI50,[44],2140 nM
same,GI50,[45],2270 nM
same,GI50,[46],1230 nM
same,IC50,"[47]; PGA-1, 24 h",3210 nM
